Earlier results, collected in US20210379001A1, “SUPPLEMENT INCLUDING GAMMA-AMINOBUTYRIC ACID FOR RESTORING GROWTH HORMONE LEVELS” (1198966 B.C. LTD., priority 2020, published 2021).

Tested on: GABA levels in rat striatal tissue and striatal extracellular fluid

NC(=O)CC[C@H](N)C(=O)O [L-Glutamine]
striatal GABA levels (2,5 h after oral 2.0 g/kg of glutamine, vehicle-treated rats 1.76+/−0.04): 2.00 ± 0.15 µmol/g
response evoked by NMDA, over baseline (ECF GABA, NMDA alone 70%, P<0.05): 120%
increase of ECF GABA concentrations (rat striatal extracellular fluid, P<0.05): 30%
